Results taken from patent publication US11021486B2, “Coumarin-like cyclic compound as MEK inhibitor and use thereof” (CSTONE PHARMACEUTICALS, priority 2017, dated 2021).
pIC50: −log10 of the molar value. Like-named read-outs stand apart in the source and are kept apart here.

Assays:
activated MEK1 = target: T1, activated MEK1 (Homo sapiens, UniProt Q02750); test: MEK Lance Ultra experiment; assay type: biochemical; conditions: 0.07 nM activated MEK1, 2 nM non-activated ERK, 50 μM ATP; read-out: MEK potency IC50
T1 construct: purchased Millipore 14-429
T1 sequence (Q02750 whole entry): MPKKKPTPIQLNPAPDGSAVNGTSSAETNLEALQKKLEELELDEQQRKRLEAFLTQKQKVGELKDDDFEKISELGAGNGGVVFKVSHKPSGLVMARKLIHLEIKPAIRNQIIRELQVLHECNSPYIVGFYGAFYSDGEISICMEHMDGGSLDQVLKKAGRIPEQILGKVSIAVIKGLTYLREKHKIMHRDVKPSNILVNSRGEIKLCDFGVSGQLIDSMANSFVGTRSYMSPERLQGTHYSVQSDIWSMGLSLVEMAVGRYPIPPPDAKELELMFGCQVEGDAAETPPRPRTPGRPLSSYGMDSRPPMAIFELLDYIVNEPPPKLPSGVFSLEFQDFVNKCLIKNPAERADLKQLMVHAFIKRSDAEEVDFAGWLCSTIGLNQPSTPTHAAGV
Procedure: Biological Test Method 1: MEK Lance Ultra Experiment Compounds were serially diluted three-fold to 10 concentrations, two duplicates were set. Final test concentrations of the compounds ranged from 10 μM to 0.51 nM. 0.07 nM activated MEK1 (Millipore #14-429) and 2 nM non-activated ERK (Millipore #14-515) were mixed with the compounds or DMSO, the mixture was incubated at 23° C. for 30 minutes. Then 50 nM ULight labeled MBP (PerkinElmer #TRF0109-M) and 50 μM ATP (Invitrogen #PV3227) were added to initiate the reaction, and the mixture was incubated at 23° C. for 90 minutes. After the reaction was stopped by adding EDTA at a final concentration of 15 mM, 2 nM Eu-labeled anti-phosphorylated antibody (PerkinElmer #TRF0201-M) was added and incubated for 1 hour. The fluorescence signal data (excitation band: 320 nm; emission band: 665 nM/615 nM) was determined by an Envision microplate reader (PerkinElmer). XLfit5 software was used for data analysis and mapping.

HT29 cells = test: Cell viability experiment (Cell Titer-Glo), HT29; assay type: cell-based, human
Procedure: (§1) Biological Test Method 2: Cell Viability Experiment
(§2) HT29 and A375 cells were plated in a 96-well cell culture plate at a density of 40,000 cells/well and 20,000 cells/well respectively, and the cells were cultured overnight. The compounds were serially diluted in a gradient of 1:3, the dilutions were added to the cell culture medium, and incubated with the cells in a 37° C. incubator for 3 days. The 96-well cell culture plate was taken from the incubator and equilibrated at room temperature for 30 minutes, then Cell Titer-Glo reagent (Promega Cat #G7573) was added at a ratio of 1:2, and the mixture was mixed thoroughly on a shaker for 2 minutes to promote cell lysis. The cell culture plate was incubated at room temperature for 10 minutes and then read on an Envision microplate reader (PerkinElmer). XLfit5 software was used for data analysis and mapping.

A375 cells = test: Cell viability experiment (Cell Titer-Glo), A375; assay type: cell-based
Procedure: as §1, §2

[1] = test system: HT-29 cell subcutaneous xenograft tumor; test: In vivo pharmacodynamics study on HT-29 cell subcutaneous xenograft tumor model; set-up: species or system BALB/c nude mouse; conditions: QD
Procedure: Biological Test Method 3: In Vivo Pharmacodynamics Study on HT-29 Cell Subcutaneous Xenograft Tumor Model in BALB/c Nude Mouse
Human colon cancer HT-29 cells (ATCC-HTB-38) were cultured in monolayer in vitro, with McCoy's 5a medium (Gibco, 1835937) supplemented with 10% fetal bovine serum, 100 U/mL penicillin and 100 μg/mL streptomycin, at 37° C. under 5% CO2. The cells were conventionally digested with trypsin-EDTA and passaged twice a week. When the cell saturation was 80%-90%, the cells were collected, counted and inoculated. 0.1 mL (5×10^6) of HT-29 cells was subcutaneously inoculated into the right back of each nude mouse. […] The diameter of the tumor was measured twice a week with a vernier caliper. The tumor volume is calculated by the formula: V=0.5a×b^2, wherein a and b represent the length and width respectively. The antitumor activity of the compounds was evaluated by TGI (%), which reflects the tumor growth inhibition rate. Calculation of TGI (%): TGI (%)=[(1−(average tumor volume at the end of administration in a treatment group−average tumor volume at the start of treatment in this treatment group))/(average tumor volume at the end of treatment in the solvent control group−average tumor volume at the start of treatment in the solvent control group)]×100%.

[2] = Pharmacokinetics study of the compounds in C57BL/6 mice; assay type: in vivo; conditions: male, mouse, single intravenous and oral dose, plasma; for bioavailability: read-out: Bioavailability F; for AUC: read-out: Comcentration quadrature AUC; for half-life: read-out: Half life T1/2 (converted)
Procedure: Biological Test Method 4: Pharmacokinetics Study of the Compounds in C57BL/6 Mice Experimental Materials: C57BL/6 mice (male, 18-22 g, 7-9 weeks old, Shanghai Lingchang) Experimental Procedure: The pharmacokinetic characteristics of the compounds in rodents were determined after intravenous and oral administration of the compounds by standard protocols. In the experiment, candidate compounds were formulated into clear solutions, and intravenously and orally administrated to […] in a single dose. The menstruum for intravenous and oral administration was DMSO, PEG and water at a certain ratio or Solutol, HPMC and SLS aqueous solutions at a certain ratio. The whole blood samples within 24 hours were collected, centrifuged at 3,000 rpm for 15 minutes, and the supernatants were isolated to obtain plasma samples. An acetonitrile solution containing an internal standard with a volume of 4 times as the plasma sample volume was added to precipitate the protein. After centrifugation, the supernatant was collected and an equal volume of water was added. After centrifugation, the supernatant was collected and injected to quantitatively analyze the blood drug concentration by LC-MS/MS analysis method, and the pharmacokinetic parameters were calculated, e.g., peak concentration, peak time, clearance, half-life, area under the drug concentration-time curve, bioavailability, etc.

[3] = Homo sapiens, HT-29, 72 h, HT29 cells, 3 days incubation, read-out: HT29 IC50
[4] = Homo sapiens, A-375, 72 h, A375 cells, 3 days incubation, read-out: A375 IC50

SMILES	pIC50 (activated MEK1)	pIC50 (HT29 cells; [3])	pIC50 (A375 cells; [4])	also measured
Cc1c(Nc2ccc(I)cc2F)c2c(=O)n(C3CC3)c(C)c(-c3cccc(CS(C)(=O)=O)c3)c2oc1=O [WX071]	7.18	8.39	8.52	TGI ([1]; 0.5 mpk, 21 days): 91%; clearance [2]: 0.912 mL/min/kg; bioavailability [2]: 83%; AUC [2]: 58.2 µM·h; half-life [2]: 5.28 h
Cc1c(Nc2ccc(I)cc2F)c2c(=O)n(C3CC3)c(C)c(-c3cccc(NS(C)(=O)=O)c3)c2oc1=O [WX066]	7.11	8.13	8.34	TGI ([1]; 0.5 mpk, 21 days): 89%; clearance [2]: 1.85 mL/min/kg; bioavailability [2]: 99.2%; AUC [2]: 28.6 µM·h; half-life [2]: 7.62 h
Cc1c(NS(C)(=O)=O)cccc1-c1c(C)n(C2CC2)c(=O)c2c(Nc3ccc(I)cc3F)c(C)c(=O)oc12 [WX086]	7.53	–	–	pIC50 (HT29 cells; Homo sapiens, HT-29, 72 h, read-out: HT29 IC50, HT29 cells, 3 days incubation): 9.21; pIC50 (A375 cells; Homo sapiens, A-375, 72 h, read-out: A375 IC50, A375 cells, 3 days incubation): 9.40; TGI ([1]; 0.5 mpk (0-11 D): 0.35 mpk (12-21 D), 21 days): 83.1%; clearance [2]: 2.2 mL/min/kg; bioavailability [2]: 76.8%; AUC [2]: 23.4 µM·h; half-life [2]: 7 h
Cc1c(NS(C)(=O)=O)cccc1-c1c(C)n(C2CC2)c(=O)c2c(Nc3ccc(I)cc3F)c(C)c(=O)oc12 (single isomer, unassigned) [WX113]	8.25	9.09	9.43	TGI ([1]; 0.2 mpk, 25 days (5 days administration, and 2 days break)): 82.8%; clearance [2]: 2.92 mL/min/kg; bioavailability [2]: 73.1%; AUC [2]: 17.6 µM·h; half-life [2]: 4.64 h
Cc1c(Nc2ccc(I)cc2F)c2c(=O)n(C3CC3)c(C)c(-c3cccc(CN(C)C)c3)c2oc1=O [WX098]	7.54	7.04	7.92	–
COCCCn1c(C)cc2oc(=O)c(C)c(Nc3ccc(I)cc3F)c2c1=O [WX057]	7.11	7.14	7.62	–
CNCc1cccc(-c2c(C)n(C3CC3)c(=O)c3c(Nc4ccc(I)cc4F)c(C)c(=O)oc23)c1 [WX097]	7.53	6.98	7.76	–
Cc1c(Nc2ccc(I)cc2F)c2c(=O)n(C3CC3)c(C)c(-c3cccc(NC(=O)NC(C)(C)C)c3)c2oc1=O [WX104]	6.93	7.55	7.98	–
Cc1c(Nc2ccc(I)cc2F)c2c(=O)n(C3CC3)c(C)c(-c3cccc(NS(=O)(=O)C4CC4)c3)c2oc1=O [WX089]	7.21	8.88	9.33	–
CC(=O)Nc1cccc(-c2c(C)n(C3CC3)c(=O)c3c(Nc4ccc(I)cc4F)c(C)c(=O)oc23)c1 [WX034]	7.56	8.19	8.83	TGI ([1]; 3 mpk, 21 days): 90.6%; clearance [2]: 1.84 mL/min/kg; bioavailability [2]: 68.7%; AUC [2]: 30.5 µM·h; half-life [2]: 5.41 h
Cc1[nH]c(=O)c2c(Nc3ccc(I)cc3F)c(C)c(=O)oc2c1-c1cccc(NS(C)(=O)=O)c1C (single isomer, unassigned) [WX119]	7.74	–	–	pIC50 (HT29 cells; HT29 cells, 3 days incubation, read-out: HT29 IC50): 7.72; pIC50 (A375 cells; A375 cells, 3 days incubation, read-out: A375 IC50): 8.23
CC(=O)Nc1cccc(-c2c(C)n(C3CCOCC3)c(=O)c3c(Nc4ccc(I)cc4F)c(C)c(=O)oc23)c1 [WX059]	7.49	6.03	5.78	–
CC(=O)NCc1cccc(-c2c(C)n(C3CC3)c(=O)c3c(Nc4ccc(I)cc4F)c(C)c(=O)oc23)c1 [WX069]	7.38	7.39	8.18	–
Cc1c(Nc2ccc(I)cc2F)c2c(=O)n(C3CC3)c(C)c(-c3cccc(NCCO)c3)c2oc1=O [WX093]	6.96	7.63	8.06	–
Cc1c(Nc2ccc(I)cc2F)c2c(=O)n(C3CC3)c(C)c(-c3cccc(CNS(C)(=O)=O)c3)c2oc1=O [WX088]	7.34	8.34	8.67	–
Cc1c(Nc2ccc(I)cc2F)c2c(=O)n(C3CC3)c(C)c(-c3cccc(NS(=O)(=O)C(C)(C)C)c3)c2oc1=O [WX095]	7.31	8.75	9.10	–
Cc1c(Nc2ccc(I)cc2F)c2c(=O)n(C3CC3)c(C)c(-c3cccc(NC(N)=O)c3)c2oc1=O [WX103]	7.31	7.69	8.18	–
